Patent US12458628B2, “Cancer therapeutic” (J-Pharma Co., Ltd., priority 2017, dated 2025)
Several values for one entry are separate records, joined by “and”; a condition that tells them apart may be missing. Identical values can stand only once.

System: patients with solid cancer
Experiment: Phase 1 clinical trial of JPH203 in patients with solid cancer (safety/DLT and efficacy)
Format: in vivo, human
Settings: for Effective case: single dose then once daily for 7 consecutive days per cycle; for DLT (dose limiting toxicity): between single administration and test at end of cycle 1
Method: The injection is a lyophilized formulation and contains 50 mg of JPH203 and 1200 mg of sulfobutyl ether-β-cyclodextrin in one vial.
Phase 1 Clinical Trial of JPH203 in Patients with Solid Cancer
This clinical trial involved patients with solid cancer. The object of this clinical trial was to evaluate the safety (dose limiting toxicity: DLT) and efficacy of JPH203.
The patient's primary inclusion criteria and exclusion criteria are as follows:
• Patients in advanced stage, who have been confirmed to have solid cancer and who are refractory or intolerant to standard therapy • Patients whose biopsies or pre-existing tissues are available for LAT1 antibody staining • Patients who can be expected to survive 90 days or more from the date of enrollment Exclusion Criteria • Patients with serious or clinically problematic anamnesis or complications • Patients who received chemotherapy, radiation therapy, immunotherapy, or other therapies aimed at tumor shrinkage effect within 4 weeks prior to study drug administration
The dosing schedule is as follows:
On Day 1, a predetermined dosage was administered in a single dose. The dosage was 12 mg/m^2 (4 cases), 25 mg/m^2 (3 cases), 40 mg/m^2 (3 cases), 60 mg/m^2 (6 cases), or 85 mg/m^2 (1 case). One case of the 12 mg/m^2 dosage group was discontinued after only a single dose due to disease progression.
Cycle 1 was started 8 days or more after the single administration, and the injection was administered once daily for 7 consecutive days. Tests including CT were performed on days 28 to 31 from the start date of cycle 1 administration.
Within 28 days of the test day of the previous cycle, the next cycle was started and the injection was administered once daily for 7 consecutive days. Tests were performed on days 28 to 31 from the start date of administration.
DLT was the following symptoms occurring between the single administration and the test at the end of cycle 1 (from the start of cycle 1 to day 28) and for which the investigator (subinvestigator) determined that the relationship with the study drug could not be denied (“related,” “probably related,” “possibly related,” or “unlikely related”). However, the final determination of DLT was made in consultation between the investigator and the sponsor. If necessary, advice from the Data and Safety Monitoring Board was sought upon determining DLT. • 1) Non-hematologic toxicity of grade 3 or more for which the investigator (subinvestigator) determines that it is difficult to continue the administration of the study drug (except for acneform rash, maculo-papular rash, or urticaria of grade 3, and nausea, vomiting, inappetence, diarrhea, constipation, or fatigue that recovers to grade 1 by symptomatic therapy within 7 days after the occurrence) • 2) Hematotoxicity of grade 4 or more or thrombocytopenia of grade 3 or more requiring blood transfusion • 3) Febrile neutropenia
It should be noted that PD (progression) is when the sum of diameters of the target lesion is increased by 20% or more and the absolute value of sum diameters is increased by 5 mm or more compared to the smallest sum diameters measured at or after the baseline.

Structure (SMILES): Nc1cc(COc2c(Cl)cc(C[C@H](N)C(=O)O)cc2Cl)c2oc(-c3ccccc3)nc2c1 [JPH203, O-(5-amino-2-phenylbenzoxazol-7-yl)methyl-3,5-dichloro-L-tyrosine]
- cases of no change in tumor size (stable: SD) (12 mg/m^2 dosage group): 1 case
- cases of tumor size reduction of 30% or more (partial response: PR) (12 mg/m^2 dosage group): One
- cases of no change in tumor size (stable: SD) (25 mg/m^2 dosage group): 1 case
- cases of no change in tumor size (stable: SD) (40 mg/m^2 dosage group): 1 case
- AST/ALT increase of grade 3 (DLT) (60 mg/m^2 dosage group): observed
- cases of no change in tumor size (stable: SD) (60 mg/m^2 dosage group): 1 case
- AST/ALT increase of grade 3 (DLT) (85 mg/m^2 dosage group): observed
- Effective case (dosage 12 mg/m^2, injection): 2/3
- DLT (dose limiting toxicity) (dosage 12 mg/m^2): No
- Effective case (dosage 25 mg/m^2, injection): 1/3
- DLT (dose limiting toxicity) (dosage 25 mg/m^2): No
- Effective case (dosage 40 mg/m^2, injection): 1/3
- DLT (dose limiting toxicity) (dosage 40 mg/m^2): No
- Effective case (dosage 60 mg/m^2, injection): 1/6
- DLT (dose limiting toxicity) (dosage 60 mg/m^2): Yes
- Effective case (dosage 85 mg/m^2, injection): 0/1
- DLT (dose limiting toxicity) (dosage 85 mg/m^2): Yes
- cases with significant shrinkage effect in lymph node metastatic lesions (lymph node metastatic lesions, all dosage groups): 3 out of 7
- survival prolonging effects by cancer type (Swimmer plot, FIG. 2) (months of survival for each subject): exhibits survival prolonging effects on bile duct cancer, colorectal cancer, and pancreatic cancer
- shrinkage of lymph node metastatic lesions (individual cases) (the 3 responding cases out of 7): 55% and 69.4% and 80%
- tumor shrinkage effects by cancer type (Waterfall plot, FIG. 1) (tumor shrinkage ratio for each subject): exhibits tumor shrinkage effects on bile duct cancer, colorectal cancer, esophageal cancer, and breast cancer
